Measurements: ChEMBL document CHEMBL5241112, “Insights into the recent progress in the medicinal chemistry of pyranopyrimidine analogs” (RSC Med Chem, 2022)
In brackets after ≈: the same amount, converted by molar mass.

Columns and labels:
[1] = test system: PC-3; assay: Anticancer activity against human PC-3 cells assessed as lethality by sulforhodamine B assay; assay type: functional; details: read-out: LC50 (the source's name)
[2] = test system: MDA-MB-435; assay: Anticancer activity against human MDA-MB-435 cells assessed as lethality by sulforhodamine B assay; assay type: functional; details: read-out: LC50 (the source's name)
[3] = test system: PC-3; assay: Anticancer activity against human PC-3 cells assessed as cell growth inhibition by sulforhodamine B assay; assay type: functional
[4] = test system: OVCAR-3; assay: Anticancer activity against human OVCAR-3 cells assessed as tumor growth inhibition by sulforhodamine B assay; assay type: functional
[5] = test system: MDA-MB-435; assay: Anticancer activity against human MDA-MB-435 cells assessed as cell growth inhibition by sulforhodamine B assay; assay type: functional
[6] = test system: PC-3; assay: Anticancer activity against human PC-3 cells assessed as tumor growth inhibition by sulforhodamine B assay; assay type: functional
[7] = test system: OVCAR-3; assay: Anticancer activity against human OVCAR-3 cells assessed as lethality by sulforhodamine B assay; assay type: functional; details: read-out: LC50 (the source's name)
[8] = test system: OVCAR-3; assay: Anticancer activity against human OVCAR-3 cells assessed as cell growth inhibition by sulforhodamine B assay; assay type: functional
[9] = test system: MDA-MB-435; assay: Anticancer activity against human MDA-MB-435 cells assessed as tumor growth inhibition by sulforhodamine B assay; assay type: functional
[10] = test system: Human immunodeficiency virus 1; assay: Antiviral activity against HIV1 IIIB infected in human MT4 cells assessed as reduction in virus-induced cytopathic effect by MTT assay; assay type: functional, organism-based; details: Human immunodeficiency virus 1, IIIB
[11] = test system: Human immunodeficiency virus 2; assay: Antiviral activity against HIV2 ROD infected in human MT4 cells assessed as reduction in virus-induced cytopathic effect by MTT assay; assay type: functional, organism-based; details: Human immunodeficiency virus 2, ROD
[12] = test system: PC-3; assay: Anticancer activity against human PC-3 cells assessed as reduction in cell viability; assay type: functional, cell-based
[13] = test system: HepG2; assay: Anticancer activity against human HepG2 cells assessed as reduction in cell viability; assay type: functional, cell-based
[14] = test system: HCT-116; assay: cells; details: Homo sapiens
[15] = test system: Bacillus subtilis; assay: Antibacterial activity against Bacillus subtilis MTCC 121 assessed as bacterial growth inhibition; assay type: functional
[16] = test system: Raoultella planticola; assay: Antibacterial activity against Raoultella planticola MTCC 530 assessed as bacterial growth inhibition; assay type: functional; details: Klebsiella planticola
[17] = test system: Staphylococcus aureus; assay: Antibacterial activity against Staphylococcus aureus MLS-16 MTCC 2940 assessed as bacterial growth inhibition; assay type: functional
[18] = test system: Micrococcus luteus; assay: Antibacterial activity against Micrococcus luteus MTCC 2470 assessed as bacterial growth inhibition; assay type: functional
[19] = test system: Escherichia coli; assay: Antibacterial activity against Escherichia coli MTCC 739 assessed as bacterial growth inhibition; assay type: functional
[20] = test system: Pseudomonas aeruginosa; assay: Antibacterial activity against Pseudomonas aeruginosa MTCC 2453 assessed as bacterial growth inhibition; assay type: functional
[21] = Antioxidant activity assessed as DPPH radical scavenging activity at 100 ug/ml incubated for 30 mins by spectrophotometric analysis; assay type: functional; details: dose 100.0 µg/ml
[22] = Antioxidant activity assessed as DPPH radical scavenging activity at 50 ug/ml incubated for 30 mins by spectrophotometric analysis; assay type: functional; details: dose 50.0 µg/ml
[23] = Antioxidant activity assessed as DPPH radical scavenging activity at 75 ug/ml incubated for 30 mins by spectrophotometric analysis; assay type: functional; details: dose 75.0 µg/ml
[24] = test system: Pseudomonas aeruginosa; assay: Antibacterial activity against Pseudomonas aeruginosa ATCC 27853 assessed as inhibition of bacterial growth incubated for 24 hrs by broth macrodilution method; assay type: functional
[25] = test system: Bacillus cereus; assay: Antimicrobial activity against Bacillus cereus assessed as diameter of inhibition zone at 1.2 mg/ml incubated for 12 hrs by agar disk diffusion method; assay type: functional
[26] = test system: Pseudomonas aeruginosa; assay: Antimicrobial activity against Pseudomonas aeruginosa assessed as diameter of inhibition zone at 1.2 mg/ml incubated for 12 hrs by agar disk diffusion method; assay type: functional
[27] = test system: Staphylococcus aureus; assay: Antimicrobial activity against Staphylococcus aureus assessed as diameter of inhibition zone at 2.5 mg/ml incubated for 12 hrs by agar disk diffusion method; assay type: functional
[28] = test system: Escherichia coli; assay: Antimicrobial activity against Escherichia coli assessed as diameter of inhibition zone at 1.2 mg/ml incubated for 12 hrs by agar disk diffusion method; assay type: functional
[29] = test system: Escherichia coli; assay: Antibacterial activity against Escherichia coli ATCC 25922 assessed as diameter of inhibition zone incubated for 24 hrs by disc diffusion assay; assay type: functional
[30] = test system: Staphylococcus aureus; assay: Antimicrobial activity against Staphylococcus aureus assessed as diameter of inhibition zone at 1.2 mg/ml incubated for 12 hrs by agar disk diffusion method; assay type: functional
[31] = test system: Pseudomonas aeruginosa; assay: Antimicrobial activity against Pseudomonas aeruginosa assessed as diameter of inhibition zone at 5.0 mg/ml incubated for 12 hrs by agar disk diffusion method; assay type: functional
[32] = test system: Staphylococcus aureus; assay: Antimicrobial activity against Staphylococcus aureus assessed as diameter of inhibition zone at 5.0 mg/ml incubated for 12 hrs by agar disk diffusion method; assay type: functional
[33] = test system: Escherichia coli; assay: Antibacterial activity against Escherichia coli ATCC 25922 assessed as inhibition of bacterial growth incubated for 24 hrs by broth macrodilution method; assay type: functional
[34] = test system: Escherichia coli; assay: Antimicrobial activity against Escherichia coli assessed as diameter of inhibition zone at 2.5 mg/ml incubated for 12 hrs by agar disk diffusion method; assay type: functional
[35] = test system: Escherichia coli; assay: Antimicrobial activity against Escherichia coli assessed as diameter of inhibition zone at 5.0 mg/ml incubated for 12 hrs by agar disk diffusion method; assay type: functional
[36] = test system: Pseudomonas aeruginosa; assay: Antimicrobial activity against Pseudomonas aeruginosa assessed as diameter of inhibition zone at 2.5 mg/ml incubated for 12 hrs by agar disk diffusion method; assay type: functional
[37] = test system: Bacillus cereus; assay: Antimicrobial activity against Bacillus cereus assessed as diameter of inhibition zone at 5.0 mg/ml incubated for 12 hrs by agar disk diffusion method; assay type: functional
[38] = test system: Bacillus cereus; assay: Antimicrobial activity against Bacillus cereus assessed as diameter of inhibition zone at 2.5 mg/ml incubated for 12 hrs by agar disk diffusion method; assay type: functional
[39] = test system: Pseudomonas aeruginosa; assay: Antibacterial activity against Pseudomonas aeruginosa ATCC 27853 assessed as diameter of inhibition zone incubated for 24 hrs by disc diffusion assay; assay type: functional
[40] = target: Hydroxycarboxylic acid receptor 2 (Homo sapiens, UniProt Q8TDS4); assay: Agonist activity at human HCA2 expressed in human Flp-In-293 cells assessed as inhibition of forskolin-stimulated cAMP accumulation at 50 uM incubated for 30 mins by Lance cAMP assay; assay type: cell-based; details: filed as agonist
Chain of Hydroxycarboxylic acid receptor 2 (Q8TDS4 whole entry): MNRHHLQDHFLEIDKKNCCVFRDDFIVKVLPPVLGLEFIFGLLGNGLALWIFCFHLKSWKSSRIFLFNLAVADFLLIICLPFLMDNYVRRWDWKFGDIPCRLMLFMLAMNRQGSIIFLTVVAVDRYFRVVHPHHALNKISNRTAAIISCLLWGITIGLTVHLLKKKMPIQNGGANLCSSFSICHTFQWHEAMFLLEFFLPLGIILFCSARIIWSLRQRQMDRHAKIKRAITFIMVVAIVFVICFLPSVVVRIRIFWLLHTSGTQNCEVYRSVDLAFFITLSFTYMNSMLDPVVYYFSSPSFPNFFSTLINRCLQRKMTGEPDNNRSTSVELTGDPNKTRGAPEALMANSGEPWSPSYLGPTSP

[41] = test system: Mycobacterium tuberculosis; assay: Antitubercular activity against Mycobacterium tuberculosis H37Rv assessed as bacterial growth inhibition at 100 ug/ml; assay type: functional
[42] = test system: Clostridium tetani; assay: Antibacterial activity against Clostridium tetani MTCC 449 assessed as bacterial growth inhibition by broth microdilution method; assay type: functional
[43] = test system: Plasmodium falciparum; assay: microbe, parasite or virus in culture
[44] = test system: Candida albicans; assay: Antifungal activity against Candida albicans MTCC 3008 assessed as fungal growth inhibition by broth microdilution method; assay type: functional
[45] = test system: Mycobacterium tuberculosis; assay: Antitubercular activity against Mycobacterium tuberculosis H37Rv assessed as bacterial growth inhibition at 250 ug/ml; assay type: functional
[46] = test system: Aspergillus fumigatus; assay: Antifungal activity against Aspergillus fumigatus MTCC 227 assessed as fungal growth inhibition by broth microdilution method; assay type: functional
[47] = test system: Bacillus subtilis; assay: Antimicrobial activity against Bacillus subtilis assessed as diameter of inhibition zone by agar well diffusion method; assay type: functional
[48] = test system: Escherichia coli; assay: Antimicrobial activity against Escherichia coli assessed as diameter of inhibition zone by agar well diffusion method; assay type: functional

Q: What does the source list for `N#CC1=C(N)Oc2[nH]c(=O)[nH]c(=O)c2C1c1ccco1` (configuration not stated)?
A: CC50 [1]: > 100 µM; CC50 [2]: > 100 µM; GI50 [3]: > 100 µM; TGI [4]: >100%; GI50 [5]: > 100 µM; TGI [6]: 98.8%; CC50 [7]: > 100 µM; GI50 [8]: > 100 µM; TGI [9]: >100%

Q: With `Cc1cn([C@H]2C[C@H](N=[N+]=[N-])[C@@H](CO)O2)c(=O)[nH]c1=O` [ZIDOVUDINE] as the compound, how does the EC50 [10] read?
A: Its EC50 is 0.0022 µg/mL (≈ 0.00823 µM).

Q: What about the EC50 [11] of the same compound?
A: Its EC50 is 0.00094 µg/mL (≈ 0.00352 µM).

Q: Which IC50 [12] does the source give for `CC(=O)C1=C(C)Oc2[nH]c(=O)[nH]c(=O)c2C1c1cccc([N+](=O)[O-])c1` (configuration not stated) here?
A: Its IC50 is 4.8 µg/mL (≈ 14 µM).

Q: And the IC50 [13]?
A: The IC50 was 5.21 µg/mL (≈ 15.2 µM).

Q: What about the IC50 [14] of the same compound?
A: Its IC50 is 7.65 µg/mL (≈ 22.3 µM).

Q: Which MIC [15] does the source give for `O=c1oc2ccccc2c2c1C(c1ccccc1)c1c(Nc3ccc([N+](=O)[O-])cc3)ncnc1O2` (configuration not stated) here?
A: Its MIC is no more than 125 µg/mL.

Q: What about the MIC [16] of the same compound?
A: The MIC was 31.2 µg/mL (≈ 67.2 µM).

Q: And the MIC [17]?
A: The MIC was no more than 125 µg/mL.

Q: What about the MIC [18] of the same compound?
A: Its MIC is 31.2 µg/mL (≈ 67.2 µM).

Q: And the MIC [19]?
A: The MIC was 31.2 µg/mL (≈ 67.2 µM).

Q: What about the MIC [20] of the same compound?
A: The MIC was no more than 125 µg/mL.

Q: What does the source list for `O=c1c(C2c3c(-c4ccccc4)n[nH]c3Oc3[nH]c(=S)[nH]c(=S)c32)coc2ccccc12` (configuration not stated)?
A: Activity [21]: 86.4%; Activity [22]: 66.5%; Activity [23]: 84.3%

Q: Which IC50 [12] does the source give for `CCOC(=O)C1=C(N)Oc2[nH]c(=O)[nH]c(=O)c2C1c1cccc([N+](=O)[O-])c1` (configuration not stated) here?
A: The IC50 was 0.25 µg/mL (≈ 0.668 µM).

Q: And the IC50 [13]?
A: The IC50 was 0.25 µg/mL (≈ 0.668 µM).

Q: What about the IC50 [14] of the same compound?
A: The IC50 was 0.25 µg/mL (≈ 0.668 µM).

Q: What does the source list for GENTAMICIN?
A: MIC [24]: 15.4 µg/mL; inhibition zone (IZ) [25]: 11 mm; inhibition zone (IZ) [26]: 11 mm; inhibition zone (IZ) [27]: 14 mm; inhibition zone (IZ) [28]: 11 mm; inhibition zone (IZ) [29]: 21.3 mm; inhibition zone (IZ) [30]: 11 mm; inhibition zone (IZ) [31]: 18 mm; inhibition zone (IZ) [32]: 18 mm; MIC [33]: 3.68 µg/mL; inhibition zone (IZ) [34]: 14 mm; inhibition zone (IZ) [35]: 18 mm; inhibition zone (IZ) [36]: 14 mm; inhibition zone (IZ) [37]: 18 mm; inhibition zone (IZ) [38]: 14 mm; inhibition zone (IZ) [39]: 17.3 mm

Q: Which Emax [40] does the source give for `O=C(CSc1nc(=O)c2c(CCCCCl)cc(=O)oc2[nH]1)Oc1ccccc1` here?
A: Its Emax is 85%.

Q: What does the source list for `Cc1nn(-c2ccccc2)c(-n2ccnc2)c1C1C(C#N)=C(N)Oc2[nH]c(=S)[nH]c(=O)c21` (configuration not stated)?
A: inhibition at 100 µg/mL [41]: 30%; MIC [42]: 100 µg/mL (≈ 225 µM); IC50 [43]: 0.97 µg/mL (≈ 2.18 µM); MIC [44]: 500 µg/mL (≈ 1120 µM); inhibition at 250 µg/mL [45]: 37%; MIC [46]: 200 µg/mL (≈ 450 µM)

Q: For `NC(=O)CSc1nc(=O)c2c(CCCCCl)cc(=O)oc2[nH]1`, which Emax [40] is on record?
A: The Emax was 87%.

Q: For `C[C@H]1COc2c(N3CCN(C)CC3)c(F)cc3c(=O)c(C(=O)O)cn1c23.C[C@H]1COc2c(N3CCN(C)CC3)c(F)cc3c(=O)c(C(=O)O)cn1c23.O` [LEVOFLOXACIN], which “diameter of the inhibition zone (DIZ)” value [47] is on record?
A: Its value is 26 mm.

Q: And the “diameter of the inhibition zone (DIZ)” value [48]?
A: The value was 29.35 mm.
